# Experiments:
# 50% GC DNA = test: Predicted cosolvent-induced Tm depression of DNA; assay type: physicochemical; settings: 1.0M 1,5-pentanediol, 0.7M 1,6-hexanediol, linearity not verified
# Experimental: The compounds utilized in the first phase (testing using 1.0M 1,5-pentanediol and 0.7M 1,6-hexanediol at temperatures between 46 and 62° C.) were chosen on the basis of the following rationale. The optimal additive for a low temperature PCR reaction is one that lowers the melting temperature of DNA as much as possible while minimally compromising polymerase activity. 1,5-Pentanediol and 1,6-hexanediol are both powerful DNA melting agents. In addition, it was found in the 62° C. activity studies that the rate of activity decline with concentration of 1,5-pentanediol was roughly equivalent to that of 1,2-butanediol, despite the fact that the former is a much stronger DNA denaturant. 1.0M 1,5-pentanediol and 0.7M 1,6-hexanediol are predicted to lower the Tm of a 50% GC DNA by approximately the same amount: 19° C.
# Taq polymerase = molecular target: T1, Taq polymerase (Thermus aquaticus, UniProt P19821); test: Taq polymerase activity assays at low temperature in the presence of additives; assay type: biochemical; settings: for Activity of Taq polymerase / Activation: 1.0M 1,5-pentanediol, 0.7M 1,6-hexanediol; for Activity of Taq polymerase: normalized to activity of control at 62° C.; for Activation: change in Taq activity versus control
# T1 construct: purchased Stratagene
# Experimental: The measured polymerase activity, then, is in fact a function of two variables—temperature and additive concentration. The plot of measured activity versus temperature and additive concentration is a two-dimensional surface. While a truly comprehensive search for maximal polymerase activity would entail screening this entire surface, the number of experiments required to do so would of course be impractical. Therefore, polymerase activity was measured first as a function of temperature in the absence of additives and at one given, high additive concentration. The temperature that yielded the maximum activity of the polymerase at that concentration was then targeted for concentration gradient studies.
# First, polymerase activity assays were carried out in the absence of additives and in the presence of 1.0M 1,5-pentanediol and 0.7M 1,6-hexanediol at temperatures between 46 and 62° C. Next, polymerase activity was studied at 53° C. in the presence of concentration gradients of 1,5-pentanediol, 2-pyrrolidone, sulfolane and tetramethylene sulfoxide. The concentrations tested were: 1,5-pentanediol: 1.0, 1.3, 1.5, 2.25, 3.0 and 3.5M; 2-pyrrolidone: 1.25, 1.5, 2.0 and 3.9M; sulfolane: 1.0, 1.5, 2.0 and 2.75M, tetramethylene sulfoxide: 1.0, 1.5, 2.0 and 3.0M.
# [1] = system: human prostate-specific membrane antigen (PSM) cDNA; test: Pilot low temperature PCR of PSM with 1,5-pentanediol; assay type: biochemical; settings: for PSM Specificity: densitometric volume of target band as percent of total volume; for PSM Potency: normalized: 1,3-butanediol (95/72° C.) = 1
# Experimental: Amplification reactions were carried out under the following general conditions. Those skilled in the art will appreciate, however, that to the extent that the conditions (set forth in this application) required for specific experiments described in this example were inconsistent with the following general conditions, limited exceptions to the following general conditions were made The general conditions were as follows: 10 Mm Tris-HCl (Ph 8.8), 50 Mm KCl, 1.5 Mm MgCl2, 0.01% (w/v) gelatin, 0.2 Um primers, 0.06 ng/ul template, 0.2 Mm each Dntp, 0.04 U/ul Taq polymerase. The templates used were bovine brain N-WASP cDNA (1518 bp), a 996 by segment of human myeloid leukocyte c-jun cDNA, a 511 by segment of human prostate-specific membrane antigen (PSM) cDNA, and bovine brain glycolipid transfer protein (GTP) cDNA (660 bp). cDNA synthesis was carried out using the FIRST-STRAND® RT-PCR kit from Stratagene on the respective mRNAs purchased from Clontech. All amplification reactions for gene were carried out using a single master batch of cDNA. Taq polymerase and dNTPs were obtained from Stratagene. Primers were obtained from Genosys. Primer melting temperatures (Tms) were calculated using the Genosys oligo calculator program. The sequences of the primers were as follows.
# Polymerase chain reactions for the N-WASP gene were conducted on a ROBOCYCLER® Gradient 40 thermal cycler from Stratagene using 100 ul solutions in 600 ul thin-walled tubes. For expediency, amplification of c-jun, PSM and GTP was carried out in a ROBOCYCLER® Gradient 96 thermal cycler from Stratagene using 50 ul solutions in 200 ul thin-walled tubes. Prior to Taq polymerase addition, a hotstart protocol was carried out that consisted of an initial cycle of 95° C. for 5 minutes (11) to ensure complete first-strand separation, followed by a cycle of 54° C. for 5 minutes. Amplifications were run for 30 cycles. Denaturation was done for 1 minute at the minimum temperatures that yielded discernable amplification: 92° C. for N-WASP and 95° C. for c-jun, PSM and GTP. Extension was done at 72° C. for periods depending on target length: 2 minutes for N-WASP, 1.5 minutes for c-jun and GTP, and 1 minute for PSM. Annealings were carried out either at fixed concentrations of additives using temperature gradients of 38-56° C. for N-WASP and 44-58° C. for the other targets, or at varying concentrations of additives using fixed temperatures of 41° C. for N-WASP, 50° C. for c-jun and PSM, and 54° C. for GTP.
# Amplification products were analyzed by agarose gel electrophoresis on 0.8% agarose gels in which 20 ul reaction products were loaded with 4 ul loading buffer. Gels were stained with ethidium bromide, visualized on a UV transilluminator (Fisher), and documented by photography. Densitometric quantitation of amplification products was carried out using IMAGE SCANNER® and IMAGE MASTER® software from Amersham Pharmacia. Background correction was done using the software's rolling disc method. […] GTP was used as the target because it has the lowest GC content of the three templates used. PCR reactions were carried out in the presence of 1.0 and 1.5M 1,5-pentanediol under the conditions of 85° C. denaturing and 53° C. extension, using a 50° C. annealing temperature. In addition, 1.5M and 2.0M 1,5-pentandediol were tested using an 80° C. denaturing temperature, with identical annealing and extension temperature. Finally, 2.0, 2.5, and 3.0M 1,5-pentanediol were tested in GTP amplification employing a 75° C. denaturation temperature.
# PSM was also tested with 1.0 and 1.5M 1,5-pentanediol using a 85° C. denaturing/50° C. annealing/53° C. extension. The denaturation temperature was then lowered to 80° C., and 2.5M 1,5-pentanediol tested. Amplification of PSM using a 75° C. denaturing temperature was not attempted.
# [2] = 80/50/53° C., 2.5 M 1,5-pentanediol
# [3] = 85/50/53° C., 1.5 M 1,5-pentanediol
# T1 sequence (P19821 whole entry): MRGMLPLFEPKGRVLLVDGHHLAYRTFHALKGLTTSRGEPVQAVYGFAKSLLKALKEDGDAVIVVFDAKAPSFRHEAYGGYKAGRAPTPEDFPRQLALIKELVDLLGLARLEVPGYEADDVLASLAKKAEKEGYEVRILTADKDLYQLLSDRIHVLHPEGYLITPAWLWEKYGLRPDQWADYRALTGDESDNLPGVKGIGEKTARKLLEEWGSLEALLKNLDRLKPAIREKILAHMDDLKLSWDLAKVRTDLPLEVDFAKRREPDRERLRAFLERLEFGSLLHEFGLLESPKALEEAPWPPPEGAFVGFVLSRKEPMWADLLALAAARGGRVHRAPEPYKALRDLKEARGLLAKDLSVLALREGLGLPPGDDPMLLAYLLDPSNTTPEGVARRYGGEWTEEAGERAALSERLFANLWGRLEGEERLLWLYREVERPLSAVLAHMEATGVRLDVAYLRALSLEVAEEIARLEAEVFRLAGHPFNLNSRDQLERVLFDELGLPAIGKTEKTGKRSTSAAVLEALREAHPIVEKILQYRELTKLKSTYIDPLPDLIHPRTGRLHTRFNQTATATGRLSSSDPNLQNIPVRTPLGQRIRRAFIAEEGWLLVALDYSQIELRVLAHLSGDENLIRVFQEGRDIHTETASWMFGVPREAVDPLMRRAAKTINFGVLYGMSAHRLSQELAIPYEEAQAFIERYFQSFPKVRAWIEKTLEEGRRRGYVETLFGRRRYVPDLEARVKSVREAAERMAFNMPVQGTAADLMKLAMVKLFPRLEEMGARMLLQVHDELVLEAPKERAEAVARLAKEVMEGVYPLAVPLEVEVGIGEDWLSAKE
smiles,measurement,setting,value
"OCCCCCO [1,5-Pentanediol]",lowering of the Tm of a 50% GC DNA,50% GC DNA,~19 °C
same,Activation of Taq polymerase,"Taq polymerase; 1.0M, within 49° C.-53° C.",exceeds 25%
same,Activity of Taq polymerase,Taq polymerase; 47° C.,0.30
same,Activation,Taq polymerase; 47° C.,−9%
same,Activity of Taq polymerase,Taq polymerase; 48° C.,0.40
same,Activation,Taq polymerase; 48° C.,−3%
same,Activity of Taq polymerase,Taq polymerase; 49° C.,0.54
same,Activation,Taq polymerase; 49° C.,+10%
same,Activity of Taq polymerase,Taq polymerase; 50° C.,0.59
same,Activation,Taq polymerase; 50° C.,+18%
same,Activity of Taq polymerase,Taq polymerase; 51° C.,0.64
same,Activation,Taq polymerase; 51° C.,+21%
same,Activity of Taq polymerase,Taq polymerase; 52° C.,0.69
same,Activation,Taq polymerase; 52° C.,+35%
same,Activity of Taq polymerase,Taq polymerase; 53° C.,0.70
same,Taq polymerase activity at 3.5M (in words),"Taq polymerase; 53° C., 3.5M (36.4%)",residual activity
same,Activation,Taq polymerase; 53° C.,+23%
same,effect on Taq polymerase activity at high concentrations (in words),"Taq polymerase; 53° C., concentration gradients, compared with 2-pyrrolidone, sulfolane and tetramethylene sulfoxide",compromises polymerase activity to the least extent
same,Activity of Taq polymerase,Taq polymerase; 54° C.,0.63
same,Activation,Taq polymerase; 54° C.,+3%
same,Activity of Taq polymerase,Taq polymerase; 55° C.,0.57
same,Activation,Taq polymerase; 55° C.,−19%
same,PSM Specificity,[1]; [2],92%
same,PSM Potency,[1]; [2],1.40
same,PSM Potency,"[1]; 80/50/53° C., 2.5 M 1,5-pentanediol, listed as 1,5-pentanediol",Substantial amplification
same,PSM Potency,"[1]; 85/50/53° C., 1.0 M 1,5-pentanediol",0.00
same,PSM Potency,"[1]; 85/50/53° C., 1.0 M 1,5-pentanediol, listed as 1,5-pentanediol",did not amplify the target sequence
same,PSM Specificity,[1]; [3],86%
same,PSM Potency,[1]; [3],2.08
same,PSM Potency,"[1]; 85/50/53° C., 1.5 M 1,5-pentanediol, listed as 1,5-pentanediol",successful

# Source: US7772383B2, “Chemical PCR: Compositions for enhancing polynucleotide amplification reactions” (The Trustees of Princeton University, priority 2002, dated 2010)
